pIC50, pKi: −log10 of the molar value.
Target: DLK kinase (N-terminally GST-tagged DLK, catalytic domain amino acid 1-520) (Homo sapiens (Human), UniProt Q12852)
Assay: DLK TR-FRET assay
Format: biochemical
Conditions: 30 μM ATP, MKK4 K131M substrate, read-out: DLK HTRF (Ki)
Procedure, shortened: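 5 nM GST-tagged DLK catalytic domain (aa 1-520) with 40 nM HIS-MKK4 K131M substrate and 30 μM ATP in HEPES pH 7.5/MgCl2 buffer. Compounds tested in 1:3 serial dilution from 20 uM, 60 min at ambient temperature. EDTA quench, then 3 h with Eu-anti-phospho-MKK4 and D2-anti-HIS before TR-FRET read (665/615 nm).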

Chain of DLK kinase (N-terminally GST-tagged DLK, catalytic domain amino acid 1-520) (Q12852 1-520): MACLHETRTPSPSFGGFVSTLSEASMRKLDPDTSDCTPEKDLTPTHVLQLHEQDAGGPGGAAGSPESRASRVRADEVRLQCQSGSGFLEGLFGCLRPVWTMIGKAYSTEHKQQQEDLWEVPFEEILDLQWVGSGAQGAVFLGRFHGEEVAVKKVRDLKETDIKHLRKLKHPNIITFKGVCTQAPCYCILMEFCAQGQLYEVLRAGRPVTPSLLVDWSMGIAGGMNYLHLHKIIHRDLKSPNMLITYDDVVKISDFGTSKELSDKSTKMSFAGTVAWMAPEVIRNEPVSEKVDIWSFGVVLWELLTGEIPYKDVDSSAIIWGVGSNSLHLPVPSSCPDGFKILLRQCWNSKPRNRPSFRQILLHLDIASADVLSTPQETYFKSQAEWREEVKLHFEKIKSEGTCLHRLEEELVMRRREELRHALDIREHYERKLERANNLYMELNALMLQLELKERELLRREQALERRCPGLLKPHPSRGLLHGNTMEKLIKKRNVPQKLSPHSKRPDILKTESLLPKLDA

pKi | Compound
7.95 | CC(=O)N1CC(c2cc(Nc3cc(C(F)(F)F)ccn3)nc(N3CCC[C@H]3C)n2)C1 [Example 375, 1-{3-[2-((R)-2-Methyl-pyrrolidin-1-yl)-6-(4-trifluoromethyl-pyridin-2-ylamino)-pyrimidin-4-yl]-azetidin-1-yl}-ethanone]
7.65 | CCC1CN(c2nc(Nc3cc(C(F)(F)F)ccn3)cc(C3CCN(C)C3)n2)CCO1 (centres unmarked) [Example 348, [2-(2-Ethyl-morpholin-4-yl)-6-(1-methyl-pyrrolidin-3-yl)-pyrimidin-4-yl]-(4-trifluoromethyl-pyridin-2-yl)-amine]
7.82 | COc1ccnc(Nc2cc(C3CCNCC3)nc(N3CCCC3C)n2)c1 (centres unmarked) [Example 125, (4-Methoxy-pyridin-2-yl)-[2-(2-methyl-pyrrolidin-1-yl)-6-piperidin-4-yl-pyrimidin-4-yl]-amine]
6.91 | CS(=O)(=O)N1CCCC(c2cc(Nc3cc(C(F)(F)F)ccn3)nc(C3CCOC3)n2)C1 (centres unmarked) [Example 401, [6-(1-Methanesulfonyl-piperidin-3-yl)-2-(tetrahydro-furan-3-yl)-pyrimidin-4-yl]-(4-trifluoromethyl-pyridin-2-yl)-amine]
7.51 | CC(=O)N1CCCC(c2cc(Nc3cc(C)ccn3)nc(-c3ccccc3)n2)C1 (centres unmarked) [Example 106, 1-{3-[6-(4-Methyl-pyridin-2-ylamino)-2-phenyl-pyrimidin-4-yl]-piperidin-1-yl}-ethanone]

Test system: phosphorylation of JNK in HEK293 cells stably transfected with doxycycline-inducible Flag-tagged full length DLK
Assay: pJNK Cell based assay
Conditions: Homo sapiens; HEK293 cells with doxycycline-induced DLK, 5.5 hours compound treatment, pJNK mean intensity by imaging; read-out: p-JNK 293 IC50
Method: pJNK Cell based assay:HEK293 cells stably transfected with doxycycline-inducible N-terminally Flag-tagged full length DLK were plated at density of 7500 cells/well (40 μL) in 384-well Greiner bio-one μclear plate coated with Poly-D-Lysine. The cells were incubated at 37° C. in DMEM (Dulbecco's Modified Eagle Medium) media containing 10% FBS and 2 mM L-Glutamine for 20-24 hours. 5 μL of 60 μM doxycycline was added to the cells to initiate DLK expression for 20 hours at 37° C. No doxycycline was added for the negative control wells. 5 μL of compounds of formula I in various concentrations in DMEM were added to the cells and the compound treated cell culture was incubated at 37° C. for 5.5 hours prior to fixation with addition of 50 μL 4% paraformaldehyde. The wells were washed with 40 μL PBS wash twice followed by permeabilization with 0.1% Triton X-100. The cells were washed with 40 μL PBS wash twice again prior to incubation in 20 μL SuperBlock (Thermo Scientific) for 1 hour at ambient temperature. The primary antibodies (1:3000 mouse anti-Flag and 1:1000 rabbit anti-pJNK in SuperBlock) were incubated with the fixed cells overnight at 4° C. The cells were washed with 40 μL PBS twice before the addition of secondary antibodies (Anti-mouse labeled with AlexaFluor555 and anti-rabbit labeled with AlexaFluor488 in 1:2000 dilution in SuperBlock). The secondary antibodies were incubated at ambient temperature for 2 hours and were protected from light. The cells were washed with 40 μL PBS before the addition of 20 μL Hoechst 33342 (1:5000 in PBS). The plate was sealed and stored at 4° C. in the dark until imaging analyses on Opera High Content Screening System (Evotec). Three data points were reported: pJNK (mean intensity inside the search stencil), DLK (mean intensity of the 1% brightest pixels inside the search stencil) and nuclear area.

Compound | pIC50
FC(F)(F)c1ccnc(Nc2cc(C3CCCNC3)nc(-c3ccccc3)n2)c1 (centres unmarked) [(2-Phenyl-6-piperidin-3-yl-pyrimidin-4-yl)-(4-trifluoromethyl-pyridin-2-yl)-amine] | 6.00
Cc1c[nH]c(CN2CCC(c3cc(Nc4cc(C(F)(F)F)ccn4)nc(N4CC(F)(F)C4)n3)C2)n1 (centres unmarked) [{2-(3,3-Difluoro-azetidin-1-yl)-6-[1-(4-methyl-1H-imidazol-2-ylmethyl)-pyrrolidin-3-yl]-pyrimidin-4-yl}-(4-trifluoromethyl-pyridin-2-yl)-amine] | 6.38
FC(F)(F)c1ccnc(Nc2cc(C3CCOCC3)nc(N3CCc4nc[nH]c4C3)n2)c1 [[2-(3,4,6,7-Tetrahydro-imidazo[4,5-c]pyridin-5-yl)-6-(tetrahydro-pyran-4-yl)-pyrimidin-4-yl]-(4-trifluoromethyl-pyridin-2-yl)-amine] | 6.62
FC1(F)CCN(c2nc(Nc3cc(Cl)ccn3)cc(C3CCNCC3)n2)C1 [(4-Chloro-pyridin-2-yl)-[2-(3,3-difluoro-pyrrolidin-1-yl)-6-piperidin-4-yl-pyrimidin-4-yl]-amine] | 6.95
Cc1nccc(C2CCN(c3nc(Nc4cc(C(F)(F)F)ccn4)cc(C4CCOCC4)n3)C2)n1 (centres unmarked) [[2-[3-(2-Methyl-pyrimidin-4-yl)-pyrrolidin-1-yl]-6-(tetrahydro-pyran-4-yl)-pyrimidin-4-yl]-(4-trifluoromethyl-pyridin-2-yl)-amine] | 6.64
CN(CCO)c1nc(Nc2cc(C(F)(F)F)ccn2)cc(C2CCNC2)n1 (centres unmarked) [2-{Methyl-[4-pyrrolidin-3-yl-6-(4-trifluoromethyl-pyridin-2-ylamino)-pyrimidin-2-yl]-amino}-ethanol] | 6.71
CC(=O)N1CCC(C#N)(c2cc(Nc3cc(C(F)(F)F)ccn3)nc(N3CCC(F)(F)C3)n2)CC1 [1-Acetyl-4-[2-(3,3-difluoro-pyrrolidin-1-yl)-6-(4-trifluoromethyl-pyridin-2-ylamino)-pyrimidin-4-yl]-piperidine-4-carbonitrile] | 6.22
FC(F)(F)c1ccnc(Nc2cc(C3CCNCC3)nc(N3CC4CC3CO4)n2)c1 (centres unmarked) [[2-(2-Oxa-5-aza-bicyclo[2.2.1]hept-5-yl)-6-piperidin-4-yl-pyrimidin-4-yl]-(4-trifluoromethyl-pyridin-2-yl)-amine] | 6.41
FC(F)(F)c1ccnc(Nc2cc(C3CCOCC3)nc(N3CC4CC3CO4)n2)c1 (centres unmarked) [[2-(2-Oxa-5-aza-bicyclo[2.2.1]hept-5-yl)-6-(tetrahydro-pyran-4-yl)-pyrimidin-4-yl]-(4-trifluoromethyl-pyridin-2-yl)-amine] | 6.57
N#CC1(C(=O)N2CCC(c3cc(Nc4cc(C(F)(F)F)ccn4)nc(N4CCC(F)(F)C4)n3)C2)CC1 (centres unmarked) [1-{3-[2-(3,3-Difluoro-pyrrolidin-1-yl)-6-(4-trifluoromethyl-pyridin-2-ylamino)-pyrimidin-4-yl]-pyrrolidine-1-carbonyl}-cyclopropanecarbonitrile] | 6.23
FC1(F)CCN(c2nc(Nc3cc(C4CCC4)ccn3)cc(C3CCNCC3)n2)C1 [(4-Cyclobutyl-pyridin-2-yl)-[2-(3,3-difluoro-pyrrolidin-1-yl)-6-piperidin-4-yl-pyrimidin-4-yl]-amine] | 6.70
Cc1ccnc(Nc2cc(C3CCCN(C(=O)c4ccccc4)C3)nc(N3CCCC3)n2)c1 (centres unmarked) [{3-[6-(4-Methyl-pyridin-2-ylamino)-2-pyrrolidin-1-yl-pyrimidin-4-yl]-piperidin-1-yl}-phenyl-methanone] | 7.11

From patent US9868720B2 (Genentech, Inc., priority 2013, dated 2018)
